According to article PMC5563080, “The High-Affinity Interaction between ORC and DNA that Is Required for Replication Licensing Is Inhibited by 2-Arylquinolin-4-Amines” (Cell Chemical Biology, 2017):
pIC50: −log10 of the molar value.

What follows are compounds tested on U2OS (assay: cells). Details: Homo sapiens, 8 h, MCM4 DNA binding.
Set-up: Inhibition of MCM4 chromatin loading (replication licensing) in synchronised U2OS cells, immunofluorescence high-content imaging
Protocol: We used these changes to design a high-throughput assay for licensing inhibitors (Figure 1B). Human U2OS cells were released into S phase from a double-thymidine block (Figures S1A–S1C) and then treated with RO3306, a CDK1 inhibitor, to reversibly block them in G2 (Figure S1D). RO3306 was removed and cells were seeded into 384-well plates containing test compounds (Figure S1E). Eight hours later, when cells should have passed through mitosis and loaded MCM2–7, cells were fixed and immunostained for DNA-bound MCM4 and also treated with DAPI to stain total DNA (Figure S1F). Microscopic images of each treatment (Figures 1C and 1D) were taken on an InCell 1000 system, which returned values for MCM4 and DNA content for each of the cells identified. To avoid any confounding effects of RO3306 treatment, we then retested these 280 compounds using a low-throughput screen whereby cells were synchronized by mitotic shake-off prior to exposure with test compounds. This low-throughput assay also has the advantage of removing cells that suffer non-specific inhibition by test compounds, as only metabolically active cells can re-adhere to the plates. Sixteen compounds produced a reproducible reduction (>60%) of DNA-bound MCM4 in this assay. These 16 compounds fell into eight discrete chemical families, which we named RL1 to RL8. After resynthesis and re-assay, we decided to take 12 of these 16 compounds forward for further study: RL1a, RL1b, RL2, RL3a, RL3b, RL4, RL5a–RL5e, and RL8. […] Microscopic images (6 fields / well) of each treatment were taken on an InCell 1000 system (GE healthcare) using a 20x objective. ActivityBase from ID Business Solutions was used for the data processing and analysis, returning values for Mcm4 and DNA content for each of the cells identified. Figure S6 details the plate maps used for the assay. A Quality Control plate was included for every three assay plates (Figure S6), where columns 1-12 were low control wells (+ R03306 + 1% DMSO) and columns 13-24 were high control well (+Media + 1% DMSO). The performance of the assay on each screening plate was evaluated using internal controls. The criteria for data acceptance of an assay plate were signal to background (mean Hi Control) / (mean Lo Control) >1.5; Z-prime (1 - (3 x Lo Control Standard Deviation + 3 x SD Hi Control Standard Deviation) / (mean Hi Control - mean Lo Control)) >0.3. The statistics from all assay plates and Quality Control plates were analysed. The screen performance indicators were: signal to background 2.4±0.53 and Z-prime 0.47±0.10.

In order of falling pIC50:
1. Cc1c(C)n(-c2nc3ccccc3s2)c2ncnc(NCCN(C)C)c12 [RL5e]  5.15
2. CN(C)CCNc1cc(-c2ccco2)nc2ccccc12 [RL5a]  5.10
3. CN(C)CCNc1cc(-c2cccs2)nc2ccccc12 [RL5b]  4.66
4. CCN(CC)CCNc1nc(-c2cccc(Cl)c2)nc2ccccc12 [RL5d]  4.49
5. CN(C)CCNc1nc(-c2ccncc2)nc2ccccc12 [RL5c]  4.23
